Test results reported in article PMC3276575, “Structural and Functional Insights into the Pilotin-Secretin Complex of the Type II Secretion System” (PLoS Pathogens, 2012).
Peptide text beside a SMILES is read from it.

Assays:
OutS_Q114A = molecular target: T1, OutS_Q114A (Dickeya dadantii, UniProt Q01567, Q114A); test: Fluorescence quenching titration, secretin peptide binding to pilotin mutant Q114A; details: fluorescence at 340 nm, excitation 290 nm, 15°C, 1 µM pilotin
T1 construct: made in house; host or cells: E. coli (periplasm)
T1 sequence (Q01567 21-133 Q114A): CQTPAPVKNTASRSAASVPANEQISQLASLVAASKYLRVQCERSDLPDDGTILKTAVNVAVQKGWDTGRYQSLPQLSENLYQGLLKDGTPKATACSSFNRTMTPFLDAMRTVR
Text: (§1) The pET-20b(+) plasmid expressing non-lipidated OutS (residues 26 to 132) fused to N-terminal PelB signal peptide has been constructed previously at a manner as the sequence of mature non-lipidated OutS after cleavage by the signal peptidase LepB is: MDP^26VKNT etc. To fuse a C-terminal 6His tag to non-lipidated OutS, SalI site was introduced at the end of outS sequence by using the primer (5′-ctt gac gcc atg cgc acc gtc gac tga ggg gga agc aac tgc) and the reverse complementary one (mutated bases are underlined). Then, by SalI/XhoI digestion the sequence coding for non-lipidated OutS was fused with that coding for 6His. Mutants of OutS were made using Strategene QuikChange and confirmed by sequencing.
(§2) Fluorescence data were collected using a Jasco FP-6300 Spectrofluorometer. […] Emission spectra were recorded at 15°C in steps of 2 nm from 310 to 400 nm. The fluorescence signal at 340 nm was plotted to calculate K d. Pilotin spectra was measured at 1 µM. […]
(§3) The Kd was determined by fitting the following equation: […]
(§4) where [PS] is the concentration of the pilotin/secretin complex, [P0] is the total concentration of the pilotin (1 µM), [S0] is the total concentration of the secretin peptide, and Kd is the dissociation constant. The observed fluorescence signal is then given by: F = FPS[PS] + FP[P]; as there are no tryptophans in the secretin peptide. […]

OutS_L100A = molecular target: T2, OutS_L100A (Dickeya dadantii, UniProt Q01567, L100A); test: Fluorescence quenching titration, secretin peptide binding to pilotin mutant L100A; details: fluorescence at 340 nm, excitation 290 nm, 15°C, 1 µM pilotin
T2 construct: made in house; host or cells: E. coli (periplasm)
T2 sequence (Q01567 21-133 L100A): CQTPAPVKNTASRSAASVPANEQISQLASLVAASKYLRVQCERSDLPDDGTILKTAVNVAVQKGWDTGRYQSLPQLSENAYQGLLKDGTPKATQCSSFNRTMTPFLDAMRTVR
Text: as §1, §2, §3, §4

OutS_L96A = molecular target: T3, OutS_L96A (Dickeya dadantii, UniProt Q01567, L96A); test: Fluorescence quenching titration, secretin peptide binding to pilotin mutant L96A; details: fluorescence at 340 nm, excitation 290 nm, 15°C, 1 µM pilotin
T3 construct: made in house; host or cells: E. coli (periplasm)
T3 sequence (Q01567 21-133 L96A): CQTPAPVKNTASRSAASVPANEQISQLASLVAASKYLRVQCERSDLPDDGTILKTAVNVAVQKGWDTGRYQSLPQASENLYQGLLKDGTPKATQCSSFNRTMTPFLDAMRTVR
Text: as §1, §2, §3, §4

OutS_S49R = molecular target: T4, OutS_S49R (Dickeya dadantii, UniProt Q01567, S49R); test: Fluorescence quenching titration, secretin peptide binding to pilotin mutant S49R; details: fluorescence at 340 nm, excitation 290 nm, 15°C, 1 µM pilotin
T4 construct: made in house; host or cells: E. coli (periplasm)
T4 sequence (Q01567 21-133 S49R): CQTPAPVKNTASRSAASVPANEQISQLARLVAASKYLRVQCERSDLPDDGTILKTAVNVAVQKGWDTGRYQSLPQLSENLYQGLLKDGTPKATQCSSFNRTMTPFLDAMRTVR
Text: as §1, §2, §3, §4

pspA-lacZ = pspA-lacZ induction (β-galactosidase activity); format: cell-based; details: E. coli MC3, 12 h at 30°C in LB
Text: (§5) Figure 4 In vivo determination of secretin interactions with pilotin. Removal of the extreme C-terminal region of the secretin results in mislocalization of the secretin to the inner membrane (A) Sequence of the C-terminus of Dickeya dadantii secretin (OutD) along with the secondary structure prediction for this region; the predicted three helices are marked “H”. The sequences of the three secretin deletion mutants (OutDΔC1 to OutDΔC3) and the C-terminal secretin peptides used are shown. (B) Stabilization of truncated derivatives of the secretin (OutD) by pilotin (OutS) in vivo. E. coli MC3 cells expressing an OutD derivative (indicated above) and either OutS (+) or empty pACT3 vector (−) were grown for 12 h at 30°C in LB medium and then analyzed by immunoblotting with OutD antibodies. In the same cultures, β-galactosidase activity was assessed to estimate expression of pspA-lacZ. An elevated level of pspA reflects mislocalization of the corresponding secretin derivative to the inner membrane. […] The whole membrane fraction from E. coli NM522 cells coexpressing the indicated secretin derivatives and pilotin was separated by flotation sucrose gradient centrifugation and analyzed by immunoblotting with OutD- antibodies or stained with Coomassie G-250 to detect the major porins, which reflect the position of the outer membrane. […]

E. coli NM522 cells = test: Membrane location by flotation sucrose gradient centrifugation; format: cell-based; details: with pilotin OutS, immunoblot
Text: as §5

inner membrane = details: ref [21]; cited from earlier work
Text: The type II secretion system spans both the inner and outer bacterial membranes, [18]. It consists of an inner membrane subcomplex, periplasmic pseudopilins and the outer membrane secretin [19]. There have been considerable recent advances in our understanding of the T2SS secretin. First the structure of the N-terminal periplasmic domains N0, N1, and N2 in complex with a nanobody was elucidated (PDB code 3EZJ) and secondly a cryo EM reconstruction of the secretin itself has been described. In the absence of pilotin the D. dadantii secretin (OutD) mislocates to the inner ...

CC[C@H](C)[C@H](NC(=O)[C@H](CO)NC(=O)[C@H](CO)NC(=O)[C@H](CCC(N)=O)NC(=O)[C@@H](NC(=O)[C@H](CCC(N)=O)NC(=O)[C@H](CCCNC(=N)N)NC(=O)[C@H](Cc1ccccc1)NC(=O)[C@@H](NC(=O)[C@H](Cc1ccc(O)cc1)NC(=O)[C@@H](N)[C@@H](C)O)[C@@H](C)O)C(C)C)C(=O)N[C@@H](CO)C(=O)N[C@@H](CC(=O)O)C(=O)N[C@@H](Cc1ccccc1)C(=O)N[C@@H](Cc1ccc(O)cc1)C(=O)N[C@@H](CCCCN)C(=O)N1CCC[C@H]1C(=O)N[C@@H](CCC(=O)O)C(=O)O [18 residue secretin peptide] (H-TYTFRQVQSSISDFYKPE-OH)
Kd (OutS_Q114A): 1100 ± 350 nM | Kd (OutS_L100A): 2100 ± 500 nM | Kd (OutS_L96A): 5300 ± 1200 nM | Kd (OutS_S49R): > 200000 nM

B1: OutD: Dickeya dadantii secretin of the type II secretion system, UniProt Q01565 (protein, UniProt Q01565 28-710, looked up)
Secretin OutD: AEFSASFKGTDIQEFINTVSKNLNKTVIIDPTVRGTISVRSYDMMNEGQYYQFFLSVLDVYGFSVVPMDNGVLKVIRSKDAKSSSIPLANNEQPGIGDELVTRVVPLNNVAARDLAPLLRQLNDNAGAGTVVHYEPSNVLLMTGRAAVIKRLVDIVNTVDKTGDREMVTVPLTYASAEDVAKLVNDLNKSDEKNALPSTMLANVVADGRTNSVVVSGEENARQRAVEMIRQLDRKQVVQGGTKVIYLKYAKALDLIEVLAGNGTSGNRNSSSSNASRPSSPRSGSSSNSNSSSGSSGSSSGSSSSSSSSSSMGFGSAFGSTSSSGGRTITIQGKEVTVRAHDQTNSLIITAPPDIMRDLEQVINQLDIRRPQVLVEAIIAEIQDADGLNLGIQWANKRAGMTQFTNTGIPISTAVIGTDQFRSNGTLTTAYASALSSFNGVTAGFYRGNWSMLLTALSSDSKNDVLATPSIVTLDNMEATFNVGQEVPVLTGSQTTSADNIFNTVERKTVGIKLRVKPQINEGDSVLLQIEQEVSSVADSNSSTNSSLGVTFNTRTVNNAVMVTNGETVVVGGLLDKTSVESNDKVPLLGDIPWLGSLFRSKSQEVRKRNLMLFLRPTIIRDPGQFQEASINKYRSFNNEQQQQRGEGNGVLDNNTLRLSGGNTYTFRQVQSSISDFYKPEGR
pspA (β-galactosidase activity) (pspA-lacZ; OutS: +): 800 | pspA (β-galactosidase activity) (pspA-lacZ; OutS: − (empty pACT3 vector)): 1100 | outer membrane location / targeting (E. coli NM522 cells): promotes the outer membrane location | location of secretin in absence of pilotin (inner membrane): mislocates to the inner membrane
